From patent publication US20190369111A1, “MOLECULAR KINETICS EVALUATION METHOD AND SCREENING METHOD” (Tokyo University of Science Foundation, priority 2016, published 2019)

Molecular target: endogenous wild-type p53 protein (Homo sapiens, UniProt P04637)
Assay: Degradation of endogenous wild-type p53 protein in HeLa cells, Western blot analysis
Type: cell-based
Design: endogenous in cells
Procedure: HeLa cells were seeded in a 24-well plate at a cell density of 4×10^4 cells/well, and then cultured under conditions of 37° C. and 5 vol % CO2 for 16 hours.
After 16 hours from cell seeding, TIBC-CANDDY_MLN was added to HeLa cells as follows. […]
After electrophoresis, proteins were transferred to a PVDF membrane (Immobion™-P, Millipore) under conditions of 100 V and 2 hours using a tank-type blotting device and a transfer buffer (25 mM Tris-HCl, 195 mM glycine, 0.01% SDS, 15% methanol). […] Subsequently, the membrane was treated with a chemiluminescence reagent Immobilon™ Western (Millipore), and then chemiluminescence was detected using a lumino image analyzer LAS-3000 (FUJIFILM Corporation).

Chain of endogenous wild-type p53 protein (P04637 whole entry): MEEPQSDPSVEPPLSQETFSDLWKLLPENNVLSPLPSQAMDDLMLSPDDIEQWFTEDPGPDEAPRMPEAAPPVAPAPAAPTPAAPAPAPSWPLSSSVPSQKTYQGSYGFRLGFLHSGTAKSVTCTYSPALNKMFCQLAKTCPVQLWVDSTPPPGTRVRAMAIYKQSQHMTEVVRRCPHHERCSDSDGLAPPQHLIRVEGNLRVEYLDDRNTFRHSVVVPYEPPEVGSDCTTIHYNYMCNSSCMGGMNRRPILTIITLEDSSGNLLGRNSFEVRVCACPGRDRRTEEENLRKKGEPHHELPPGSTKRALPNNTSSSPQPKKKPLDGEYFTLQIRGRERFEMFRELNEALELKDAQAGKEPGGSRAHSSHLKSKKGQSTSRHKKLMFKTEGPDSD

CC(C)C[C@H](NC(=O)CNC(=O)c1cc(Cl)ccc1Cl)C(=O)NCCCCCCC(=O)Nc1ccc(C(=O)/C=C/c2ccc(I)cc2)cc1 [TIBC-CANDDY_MLN]
amount of endogenous wild-type p53 protein (24 hours after addition): the amount of the endogenous wild-type p53 protein was reduced | amount of wild-type p53 protein when MLN2238 is added together (both TIBC-CANDDY_MLN and MLN2238 added): the amount of the wild-type p53 protein was increased as compared with the control (DMSO)
